Test results from patent publication US9932354B2, “Imidazo-oxadiazole and imidazo-thiadiazole derivatives” (Ares Trading S.A., priority 2012, dated 2018).

Assays:
[1] = system: Amyloid-β peptide release (AβTotal), HEK cells overexpressing APP (HEK-APP); assay: Amyloid-β peptide release (AβTotal) assay, AlphaLISA on supernatant of HEK-APP cells; format: cell-based; conditions: ratio Abtot vs Ab42, HEK-APP cells, 24 h
[2] = system: Amyloid-β peptide release (Aβ42), HEK cells overexpressing APP (HEK-APP); assay: Amyloid-β peptide release (Aβ42) assay, AlphaLISA on supernatant of HEK-APP cells; format: cell-based; conditions: Homo sapiens, HEK293, 24 h incubation with compound, read-out: Ab42 IC50 Ranges
How it was run: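 HEK-APP cells treated with compounds for 24 h at 37 °C, 5% CO2. Supernatant Aβ42 or total Aβ measured by AlphaLISA after 4.5 h with antibody beads (6E10 acceptor beads for total). IC50 values derived.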

SMILES	Abtot/Ab42 selectivity ranges [1]	IC50 [2] [nM]
Cc1ncc2oc(-c3ccc(NC(=O)Cc4cc(F)ccc4C(F)(F)F)cc3)nn12 [Example 66, 2-(5-fluoro-2-(trifluoromethyl)phenyl)-N-(4-(5-methylimidazo [5,1-b][1,3,4]oxadiazol-2-yl)phenyl)acetamide]	c (c: 50 fold > selectivity ≥ 10 fold)	1000 to 2200
Cc1ncc2sc(C(=O)NCc3cccc4ccccc34)nn12 [Example 105, 5-methyl-N-(naphthalen-1-ylmethyl)imidazo[5,1-b][1,3,4]thiadiazole-2-carboxamide]	d (d: 10 fold > selectivity)	500 to 1000
CCc1ncc2oc(-c3ccc(C(=O)NCc4cccc5ccccc45)cc3)nn12 [Example 21]	c (c: 50 fold > selectivity ≥ 10 fold)	1000 to 2200
Cc1ncc2sc(C(=O)N(Cc3ccccc3)CC(C)C)nn12 [Example 89, 5-Methyl-imidazo[5,1-b][1,3,4]thiadiazole-2-carboxylic acid benzyl-isobutyl-amide]	d (d: 10 fold > selectivity)	100 to 500
Cc1ncc2oc(-c3ccc(NC(=O)Cc4ccc(C(C)(C)C)cc4)cc3)nn12 [Example 57, 2-(4-tert-Butyl-phenyl)-N-[4-(5-methyl-imidazo[5,1-b][1,2,4]oxadiazol-2-yl)-phenyl]-acetamide]	b (b: 100 fold > selectivity ≥ 50 fold)	500 to 1000
Cc1ncc2oc(-c3ccc(NC(=O)Cc4ccc(F)cc4Cl)cc3)nn12 [Example 65, 2-(2-chloro-4-fluorophenyl)-N-(4-(5-methylimidazo[5,1-b][1,3,4]oxadiazol-2-yl)phenyl)acetamide]	c (c: 50 fold > selectivity ≥ 10 fold)	1000 to 2200
Cc1ncc2oc(-c3ccc(NC(=O)Cc4cccc(Oc5ccccc5)c4)cn3)nn12 [Example 15, N-[6-(5-Methyl-imidazo[5,1-b][1,2,4]oxadiazol-2-yl)-pyridin-3-yl]-2-(3-phenoxy-phenyl)-acetamide]	b (b: 100 fold > selectivity ≥ 50 fold)	500 to 1000
Cc1ncc2oc(-c3ccc(NC(=O)Cc4cccc(Br)c4)cc3)nn12 [Example 9, 2-(3-Bromo-phenyl)-N-[4-(5-methyl-imidazo[5,1-b][1,2,4]oxadiazol-2-yl)-phenyl]-acetamide]	c (c: 50 fold > selectivity ≥ 10 fold)	500 to 1000
Cc1ncc2oc(-c3ccc(NC(=O)Cc4cccc(C#N)c4)cc3)nn12 [Example 64, 2-(3-cyanophenyl)-N-(4-(5-methylimidazo[5,1-b][1,3,4]oxadiazol-2-yl)phenyl)acetamide]	b (b: 100 fold > selectivity ≥ 50 fold)	500 to 1000
Cc1ncc2sc(C(=O)N(C)Cc3cccc(Cl)c3)nn12 [Example 95, 5-Methyl-imidazo[5,1-b][1,3,4]thiadiazole-2-carboxylic acid (3-chloro-benzyl)-methyl-amide]	d (d: 10 fold > selectivity)	500 to 1000
Cc1ncc2sc(C(=O)N3CCCC3c3cccc(Br)c3)nn12 (stereo not shown) [Example 123, [2-(3-Bromo-phenyl)-pyrrolidin-1-yl]-(5-methyl-imidazo[5,1-b][1,3,4]thiadiazol-2-yl)-methanone]	d (d: 10 fold > selectivity)	1000 to 2200
CCOc1ccc(CC(=O)Nc2ccc(-c3nn4c(C)ncc4o3)c(OC)c2)cc1 [Example 35, 2-(4-ethoxyphenyl)-N-(3-methoxy-4-(5-methylimidazo [5,1-b][1,3,4]oxadiazol-2-yl)phenyl)acetamide]	b (b: 100 fold > selectivity ≥ 50 fold)	500 to 1000
Cc1cc(-c2nn3c(C)ncc3o2)ccc1NC(=O)C(C)c1cccc(C(F)(F)F)c1 (stereo not shown) [Example 46, N-(2-methyl-4-(5-methylimidazo[5,1-b][1,3,4]oxadiazol-2-yl)phenyl)-2-(3-(trifluoromethyl)phenyl)propanamide]	b (b: 100 fold > selectivity ≥ 50 fold)	500 to 1000
Cc1ncc2oc(-c3ccc(NC(=O)Cc4cccc(C(F)(F)F)c4)cc3)nn12 [Example 3, N-[4-(5-Methyl-imidazo[5,1-b][1,2,4]oxadiazol-2-yl)-phenyl]-2-(3-trifluoromethyl-phenyl)-acetamide]	c (c: 50 fold > selectivity ≥ 10 fold)	1000 to 2200
Cc1ncc2sc(C(=O)NC(c3ccc(Cl)cc3)C3CC3)nn12 (stereo not shown) [Example 91, 5-Methyl-imidazo[5,1-b][1,3,4]thiadiazole-2-carboxylic acid [(4-chloro-phenyl)-cyclopropyl-methyl]-amide]	d (d: 10 fold > selectivity)	1000 to 2200
Cc1cc(-c2nn3c(C)ncc3o2)ccc1NC(=O)Cc1c(Cl)cc(C(F)(F)F)cc1Cl [Example 42, 2-(2,6-dichloro-4-(trifluoromethyl)phenyl)-N-(2-methyl-4-(5-methylimidazo[5,1-b][1,3,4]oxadiazol-2-yl)phenyl)acetamide]	b (b: 100 fold > selectivity ≥ 50 fold)	500 to 1000

SMILES	Abtot/Ab42 selectivity ranges [1]	IC50 [2] [nM]
Cc1ccc(C)c(CC(=O)Nc2ccc(-c3nn4c(C)ncc4o3)cc2)c1 [Example 50]	c (c: 50 fold > selectivity ≥ 10 fold)	500 to 1000
CCOc1ccccc1CNC(=O)c1nn2c(C)ncc2s1 [Example 96, 5-Methyl-imidazo[5,1-b][1,3,4]thiadiazole-2-carboxylic acid 2-ethoxy-benzylamide]	d (d: 10 fold > selectivity)	500 to 1000
COc1cc(NC(=O)Cc2cccc(Cl)c2)ccc1-c1nn2c(C)ncc2o1 [Example 33, 2-(3-chlorophenyl)-N-(3-methoxy-4-(5-methylimidazo[5,1-b] [1,3,4]oxadiazol-2-yl)phenyl)acetamide]	b (b: 100 fold > selectivity ≥ 50 fold)	500 to 1000
Cc1ncc2oc(-c3ccc(NC(=O)Cc4cccc5ccccc45)cc3)nn12 [Example 71, N-(4-(5-methylimidazo[5,1-b][1,3,4]oxadiazol-2-yl)phenyl)-2-(naphthalen-1-yl)acetamide]	b (b: 100 fold > selectivity ≥ 50 fold)	500 to 1000
Cc1ncc2oc(-c3ccc(NC(=O)Cc4ccc(C#N)cc4)cc3)nn12 [Example 49, 2-(4-Cyano-phenyl)-N-[4-(5-methyl-imidazo[5,1-b] [1,2,4]oxadiazol-2-yl)-phenyl]-acetamide]	c (c: 50 fold > selectivity ≥ 10 fold)	1000 to 2200
Cc1ncc2sc(-c3ccc(NC(=O)Cc4cccc(C(F)(F)F)c4)cc3)nn12 [Example 100, N-[4-(5-Methyl-imidazo[5,1-b][1,3,4]thiadiazol-2-yl)-phenyl]-2-(3-trifluoromethyl-phenyl)-acetamide]	b (b: 100 fold > selectivity ≥ 50 fold)	100 to 500
Cc1ncc2oc(-c3ccc(NC(=O)C(C)c4cccc(C(F)(F)F)c4)cc3)nn12 (stereo not shown) [Example 55, N-(4-(5-methylimidazo[5,1-b][1,3,4]oxadiazol-2-yl)phenyl)-2-(3-(trifluoromethyl)phenyl)propanamide]	c (c: 50 fold > selectivity ≥ 10 fold)	1000 to 2200
COc1cc(NC(=O)Cc2c(Cl)cc(C(F)(F)F)cc2Cl)ccc1-c1nn2c(C)ncc2o1 [Example 32, 2-(2,6-dichloro-4-(trifluoromethyl)phenyl)-N-(3-methoxy-4-(5-methylimidazo[5,1-b][1,3,4]oxadiazol-2-yl)phenyl) acetamide]	a (a: selectivity ≥ 100 fold)	100 to 500
Cc1ncc2oc(-c3ccc(NC(=O)c4ccc(F)c(OC(F)(F)F)c4)cn3)nn12 [Example 16, 4-Fluoro-N-[6-(5-methyl-imidazo[5,1-b][1,2,4]oxadiazol-2-yl)-pyridin-3-yl]-3-trifluoromethoxy-benzamide]	d (d: 10 fold > selectivity)	1000 to 2200
Cc1ccccc1C1CCCN1C(=O)c1nn2c(C)ncc2s1 (stereo not shown) [Example 121, (5-Methyl-imidazo[5,1-b][1,3,4]thiadiazol-2-yl)-(2-o-tolyl-pyrrolidin-1-yl)-methanone]	d (d: 10 fold > selectivity)	500 to 1000
Cc1ncc2oc(-c3ccc(NC(=O)Cc4ccc(Cl)cc4Cl)cn3)nn12 [Example 82]	c (c: 50 fold > selectivity ≥ 10 fold)	1000 to 2200
Cc1ncc2sc(C(=O)N3CCC[C@@H]3c3ccc(Br)cc3)nn12 [Example 113, (R)-(2-(4-bromophenyl)pyrrolidin-1-yl)(5-methylimidazo[5,1-b][1,3,4]thiadiazol-2-yl)methanone]	d (d: 10 fold > selectivity)	< 100
Cc1ncc2sc(C(=O)NCc3ccc(Oc4ccccc4)cc3)nn12 [Example 107, 5-Methyl-imidazo[5,1-b][1,3,4]thiadiazole-2-carboxylic acid 4-phenoxy-benzylamide]	c (c: 50 fold > selectivity ≥ 10 fold)	100 to 500
Cc1ncc2sc(-c3ccc(NC(=O)Cc4ccc(Cl)c(Cl)c4)cc3)nn12 [Example 128, 2-(3,4-Dichloro-phenyl)-N-[4-(5-methyl-imidazo[5,1-b][1,3,4]thiadiazol-2-yl)-phenyl]-acetamide]	c (c: 50 fold > selectivity ≥ 10 fold)	500 to 1000
Cc1cccc(CC(=O)Nc2ccc(-c3nn4c(C)ncc4o3)cc2)c1 [Example 2, N-[4-(5-Methyl-imidazo[5,1-b][1,2,4]oxadiazol-2-yl)-phenyl]-2-m-tolyl-acetamide]	c (c: 50 fold > selectivity ≥ 10 fold)	1000 to 2200
COc1ccccc1CC(=O)Nc1ccc(-c2nn3c(C)ncc3o2)cc1 [Example 53, 2-(2-Methoxy-phenyl)-N-[4-(5-methyl-imidazo[5,1-b][1,2,4]oxadiazol-2-yl)-phenyl]-acetamide]	d (d: 10 fold > selectivity)	1000 to 2200
